# Measured values reported in ChEMBL document CHEMBL1145432, “Antitumor activity, X-ray crystal structure, and DNA binding properties of thiocoraline A, a natural bisintercalating thiodepsipeptide” (2007).
# Bridge positions count the residues as written; N and C are the ends. Square brackets hold non-standard residues; d marks the D form. Peptide text beside a SMILES is read from it. I, II: the chains in the order shown. * marks the point of attachment. Quinaldoyl(3-OH) = O=C(c1nc2ccccc2cc1O)*; NMeC = CN[C@@H](CS)C(=O)O
# How the values were obtained:
# Assay type in all cases: functional
# SK-BR-3 = test: Cytotoxicity against human SK-BR3 cells after 72 hrs by SRB assay; settings: SK-BR-3, 72 h
# HeLa = test: Cytotoxicity against human HeLa cells after 72 hrs by SRB assay
# HT-29 = test: Cytotoxicity against human HT29 cells after 72 hrs by SRB assay; settings: HT-29, 72 h
# [1] = Cytotoxicity against human IGROV cells after 72 hrs by SRB assay
# K562 = test: Cytotoxicity against human K562 cells after 72 hrs by SRB assay; settings: K562, 72 h
# PANC-1 = test: Cytotoxicity against human PANC1 cells after 72 hrs by SRB assay; settings: PANC-1, 72 h
# A549 = test: Cytotoxicity against human A549 cells after 72 hrs by SRB assay; settings: A549, 72 h
# LoVo [2] = test: Cytotoxicity against doxorubicin resistant human LoVo cells after 72 hrs by SRB assay
# SK-MEL-28 = test: Cytotoxicity against human SK-MEL-28 cells after 72 hrs by SRB assay; settings: SK-MEL-28, 72 h
# LoVo [3] = test: Cytotoxicity against human LoVo cells after 72 hrs by SRB assay
# LNCaP = test: Cytotoxicity against human LNCaP cells after 72 hrs by SRB assay
# DU-145 = test: Cytotoxicity against human DU145 cells after 72 hrs by SRB assay; settings: DU-145, 72 h
# [4] = read-out: LC50 (the source's name)
smiles,measurement,setting,value
"CSC[C@H]1C(=O)SC[C@@H](NC(=O)c2nc3ccccc3cc2O)C(=O)NCC(=O)N(C)[C@H]2CSSC[C@@H](C(=O)N1C)N(C)C(=O)CNC(=O)[C@H](NC(=O)c1nc3ccccc3cc1O)CSC(=O)[C@H](CSC)N(C)C2=O [THIOCORALINE A] (I: {Quinaldoyl(3-OH)}-[dC]G[NMeC][NMeC](Me) / II: {Quinaldoyl(3-OH)}-[dC]G[NMeC][NMeC](Me); thioester I:1-II:C, I:C-II:1; disulfide I:3-II:3)",GI50,SK-BR-3,2.2 nM
same,TGI,SK-BR-3,8.9 nM
same,CC50,SK-BR-3; [4],30.8 nM
same,GI50,HeLa,1.3 nM
same,TGI,HeLa,4.7 nM
same,CC50,HeLa; [4],22.6 nM
same,GI50,HT-29,3.9 nM
same,TGI,HT-29,73.6 nM
same,CC50,HT-29; [4],6290 nM
same,GI50,[1],1.9 nM
same,TGI,[1],11.1 nM
same,CC50,[1]; [4],1260 nM
same,GI50,K562,1.3 nM
same,TGI,K562,4.6 nM
same,CC50,K562; [4],9.2 nM
same,GI50,PANC-1,2.5 nM
same,TGI,PANC-1,82.5 nM
same,CC50,PANC-1; [4],378 nM
same,GI50,A549,4.8 nM
same,TGI,A549,19.3 nM
same,CC50,A549; [4],95.6 nM
same,GI50,LoVo [2],212 nM
same,TGI,LoVo [2],2380 nM
same,GI50,SK-MEL-28,3 nM
same,TGI,SK-MEL-28,14 nM
same,CC50,SK-MEL-28; [4],50.3 nM
same,GI50,LoVo [3],7.2 nM
same,TGI,LoVo [3],263 nM
same,CC50,LoVo [3]; [4],284 nM
same,GI50,LNCaP,3 nM
same,TGI,LNCaP,5 nM
same,CC50,LNCaP; [4],14.2 nM
same,GI50,DU-145,1.9 nM
same,TGI,DU-145,6.4 nM
same,CC50,DU-145; [4],1480 nM
